Results published in patent publication US8815880B2, “Crystal of tricyclic pyrazolopyrimidine derivative” (Daiichi Sankyo Company, Limited, priority 2010, dated 2014).

Assays:
[1] = Purity test and stability test (accelerated test, HPLC related substances); assay type: physicochemical; details: monohydrochloride
Experimental: Purity Test and Stability Test
• Condition 1: 40° C., humidity: 75% • Condition 2: 60° C. (without humidity control)
Samples under the aforementioned accelerated test conditions were measured by high performance liquid chromatography as described below.
An analyte for the accelerated test was dissolved in the sample-dissolved solution to prepare an approximately 0.5 g/L solution.
• Column: YMC-Pack Pro C18RS, 3.0 mm ID×150 mm, particle diameter: 3 μm • Column temperature: approximately 40° C. • Gradient conditions:
45 to 55 minutes, mobile phase A: 0/mobile phase B: 100 • Flow rate: 0.7 ml/min • Measurement range: 0 to 55 minutes • Detection wavelength: 240 nm • Amount of sample solution injected: 5 μl <Calculation> • 1) The sample solution was injected into the column, so as to obtain the peak area (A) of each related substance and the peak area (T) of compound (1). • 2) The sample-dissolved solution was injected into the column, so as to obtain the peak area (B) of each blank. • 3) The amount [%] of each related substance was calculated using the formula: The amount [%] of each related substance=100×(A−B)÷T <Measurement Results>

[2] = test system: human breast cancer cell line SK-BR-3; assay: Cell growth inhibition assay (MTT), SK-BR-3; assay type: cell-based; details: SK-BR-3 cells, 72 hours, read-out: GI50 value (50% growth inhibitory concentration)
Experimental: (§1) A cell growth inhibition assay was performed using two types of cells (human breast cancer cell line SK-BR-3 and human lung cancer cell line NCI-H460).
(§2) Cells of each type were suspended in a medium and seeded into a 96-well multi-well plate at 2000 cells/150 μL/well in the case of SK-BR-3 and at 500 cells/150 μL/well in the case of NCI-H460. Compound (1) was dissolved in DMSO, and this was diluted with medium to prepare a sample solution (DMSO concentration: 0.5% or less). On the day following the seeding, 50 μL of DMSO-containing medium to which the test compound was not added (hereinafter called DMSO diluted solution; DMSO concentration: 0.5% or less) or 50 μL of the sample solution was further added to the cells. An MTT assay was performed immediately after and 72 hours after adding the sample solution or the DMSO diluted solution to the cells. The MTT assay was performed as follows.
(§3) 5 mg/mL of an MTT (3-(4,5-dimethylthiazol-2-yl)-2,5-diphenyltetrazolium bromide) solution was added at 20 μL per well. Thereafter, the plate was incubated at 37° C. in 5% CO2 for four hours. The plate was centrifuged at 1200 rpm for five minutes, and then the culture supernatant was removed by suction using a dispenser. DMSO was added at 150 μL per well, and the generated formazan was dissolved. […] The absorbance of each well was measured using a plate reader at an OD of 540 nm with a reference of 660 nm. […]

[3] = test system: human lung cancer cell line NCI-H460; assay: Cell growth inhibition assay (MTT), NCI-H460; assay type: cell-based; details: NCI-H460 cells, 72 hours, read-out: GI50 value (50% growth inhibitory concentration)
Experimental: as §1, §2, §3

[4] = Accelerated condition 1: 40° C., humidity 75%, 2 weeks
[5] = Accelerated condition 1: 40° C., humidity 75%, 4 weeks
[6] = Accelerated condition 2: 60° C. (without humidity control), 2 weeks
[7] = Accelerated condition 2: 60° C. (without humidity control), 4 weeks
[8] = Purity test (Initial), before accelerated test

Row | Impurity (rrt 0.43) amount [1, 4] [%] | Impurity: Total of unspecified [1, 4] [%] | Impurity (rrt 0.43) amount [1, 5] [%] | Impurity: Total of unspecified [1, 5] [%] | Impurity (rrt 0.43) amount [1, 6] [%] | Impurity: Total of unspecified [1, 6] [%] | Impurity (rrt 0.43) amount [1, 7] [%] | Impurity: Total of unspecified [1, 7] [%] | Impurity (rrt 0.43) amount [1, 8] [%] | Impurity: Total of unspecified [1, 8] [%] | GI50 [2] [nM] | GI50 [3] [nM] | Compound
1 | 0.41 | 1.14 | 0.44 | 1.12 | 0.44 | 1.25 | 0.45 | 1.18 | 0.37 | 1.07 | – | – | CNC(=O)CC1=Cc2nn(Cc3ncc(C)c(OC)c3Cl)c3nc(N)nc(c23)SC1.Cl [Example 28, 2-{4-Amino-2-[(3-chloro-4-methoxy-5-methylpyridin-2-yl)methyl]-2,7-dihydro-6-thia-1,2,3,5-tetraazabenzo[cd]azulen-8-yl}-N-methylacetamide monohydrochloride]
2 | – | – | – | – | – | – | – | – | – | – | 13 | 26 | CNC(=O)CC1=Cc2nn(Cc3ncc(C)c(OC)c3Cl)c3nc(N)nc(c23)SC1 [Compound (1), 2-{4-amino-2-[(3-chloro-4-methoxy-5-methylpyridin-2-yl)methyl]-2,7-dihydro-6-thia-1,2,3,5-tetraazabenzo[cd]azulen-8-yl}-N-methylacetamide]
3 | 0.94 | 1.83 | 1.04 | 2.08 | 1.09 | 2.31 | 1.21 | 2.42 | 0.75 | 1.64 | – | – | CNC(=O)CC1=Cc2nn(Cc3ncc(C)c(OC)c3Cl)c3nc(N)nc(c23)SC1.Cl [Example 4, 2-{4-Amino-2-[(3-chloro-4-methoxy-5-methylpyridin-2-yl)methyl]-2,7-dihydro-6-thia-1,2,3,5-tetraazabenzo[cd]azulen-8-yl}-N-methylacetamide monohydrochloride]
4 | 0.30 | 1.08 | 0.33 | 1.09 | 0.32 | 1.20 | 0.33 | 1.20 | 0.27 | 1.00 | – | – | CNC(=O)CC1=Cc2nn(Cc3ncc(C)c(OC)c3Cl)c3nc(N)nc(c23)SC1.Cl [Example 12, 2-{4-Amino-2-[(3-chloro-4-methoxy-5-methylpyridin-2-yl)methyl]-2,7-dihydro-6-thia-1,2,3,5-tetraazabenzo[cd]azulen-8-yl}-N-methylacetamide monohydrochloride]
